# Experimental data reported in patent publication US20060223857A1, “Combination of a serotonin reuptake inhibitor and a glycine transporter type 1 inhibitor for the treatment of depression” (priority 2003, published 2006).
# System: serotonin levels in rat ventral hippocampus
# Assay: Microdialysis of serotonin levels in ventral hippocampus
# Type: in vivo
# Protocol: Male albino rats of a Wistar-derived strain (285-320 g; Harlan, Zeist, The Netherlands) were used for the experiments. Upon surgery, rats were housed individually in plastic cages (35×35×40 cm), and had free access to food and water. Animals were kept on a 12 h light schedule (light on 7:00 a.m.). The experiments are concordant with the declarations of Helsinki and were approved by the animal care committee of the faculty of mathematics and natural science of the University of Groningen.
# The following drugs were used: Citalopram hydrobromide and NFPS having the structure: [drawing 3] (LU 2736N) (Lundbeck A/S, Copenhagen, Denmark). Drugs were dissolved in saline and administered s.c. Surgery […]
# Twenty-μl microdialysate samples were injected via an autoinjector (CMA/200 refrigerated microsampler, CMA, Sweden) onto a 100×2.0 mm C18 Hypersil 3 μm column (Bester, Amstelveen, the Netherlands) and separated with a mobile phase consisting of 5 g/L di-ammoniumsulfate, 500 mg/L EDTA, 50 mg/L heptane sulphonic acid, 4% methanol v/v, and 30 μl/L of triethylamine, pH 4.65 at a flow of 0.4 ml/min (Shimadzu LC-10 AD). 5-HT was detected amperometrically at a glassy carbon electrode at 500 mV vs Ag/AgCl (Antec Leyden, Leiden, The Netherlands). […]
compound,measurement,setting,value
CN(CCC(Oc1ccc(-c2ccccc2)cc1)c1ccc(F)cc1)CC(=O)O (centres unmarked) [NFPS],augmentation of the effect of citalopram on hippocampal serotonin levels,"NFPS 10 μmol/kg s.c. co-administered with citalopram 10 μmol/kg s.c., Treatment P=0.044, Treatment vs. Time P=0.033",significantly augmented the effect of citalopram
same,effect on serotonin levels in rat ventral hippocampus,"NFPS alone, 10 μmol/kg s.c., microdialysis, Wistar rats",did not induce any significant effects
